{
  "source": "patent US10874687B1",
  "about": "(Atea Pharmaceuticals, Inc., priority 2020, dated 2020)",
  "key": {"Huh-7 cells": {"tested_on": "Huh-7 cells", "conditions": "human"}, "in vitro [1]": {"experiment": "in vitro", "conditions": "human"}, "HCoV-OC43 [2]": {"tested_on": "HCoV-OC43", "experiment": "microbe, parasite or virus in culture", "assay_type": "cell-based, human coronavirus beta-OC43", "conditions": "Betacoronavirus 1, OC43, Huh-7, read-out: VYR EC90"}, "[3]": {"experiment": "Cytotoxicity in mock infected MES-1 cells (MTT)", "assay_type": "cell-based", "conditions": "Table 3A", "description": "(§1) To determine the cytotoxicity, cells were seeded at an initial density of 1×10^6 cells/mL in 96 well plates containing Minimum Essential Medium with Earles's salts (MEM-E), L-glutamine, 1 mM sodium pyruvate and 25 mg/L kanamycin, supplemented with 10% fetal bovine serum. Cell cultures were then incubated at 37° C. in a humidified 5% CO2 atmosphere in the absence or presence of serial dilutions of test compounds. Cell viability was determined by the MTT method."}, "[4]": {"tested_on": "mock infected MES-1 cells", "experiment": "Cytotoxicity in mock infected MES-1 cells (MTT)", "assay_type": "cell-based", "conditions": "3 days, Table 3B", "description": "as §1"}, "SARS-CoV (Urbani)": {"tested_on": "SARS-CoV (Urbani)", "experiment": "microbe, parasite or virus in culture", "assay_type": "cell-based, SARS-CoV-1"}, "SARS-CoV-2 (WA1)": {"tested_on": "SARS-CoV-2 (WA1)", "experiment": "microbe, parasite or virus in culture", "assay_type": "cell-based"}, "HCoV-229E [5]": {"tested_on": "HCoV-229E", "experiment": "microbe, parasite or virus in culture", "assay_type": "cell-based, human coronavirus alpha-229E"}, "[6]": {"experiment": "Cytotoxicity in mock infected BHK-21 cells (MTT)", "assay_type": "cell-based, hamster", "conditions": "hamster", "description": "as §1\n(§2) BHK-21 cells: Test compounds were dissolved in DMSO at 100 mM and then diluted in Minimum Essential Medium with Earle's salts (MEM-E) containing 1 mM sodium pyruvate and 25 μg/mL kanamycin, supplemented with 10% FBS (growth medium) to final concentrations of 100, 20, 4 and 0.8 μM (two 24-well replica plates each). After BHK-21 cells were grown to confluency in 96-well plates, growth medium was replaced with fresh maintenance medium (growth medium with 1% inactivated FBS in place of 10% FBS) containing serially diluted test compound and HCoV-229E at a multiplicity of infection (MOI) of 0.01. Uninfected cells in the presence of serially diluted compound were used to assess the cytotoxicity of compounds. After a 3-day incubation at 37° C. in a humidified 5% CO2 atmosphere, cell viability was determined by the MTT method (Pauwels, R et al. J. Virol. Methods 20(4):309-321 (1988))."}, "mock infected BHK cells": {"tested_on": "mock infected BHK cells", "experiment": "Cytotoxicity in mock infected BHK-21 cells (MTT)", "assay_type": "cell-based, hamster", "conditions": "mock infected BHK cells; MTT; 3 days; Table 2B", "description": "as §1, §2"}, "in vitro [7]": {"experiment": "in vitro", "conditions": "human", "remark": "listed apart in the source"}, "HCoV-OC43 [8]": {"tested_on": "HCoV-OC43", "experiment": "microbe, parasite or virus in culture", "assay_type": "cell-based, human coronavirus beta-OC43"}, "HCoV-229E [9]": {"tested_on": "HCoV-229E", "conditions": "HCoV-229E in MRC-5 cells; cited from earlier work"}, "[10]": {"experiment": "Plasma PK of metabolites in non-human primates after oral Compound 2A", "conditions": "cynomolgus, cynomolgus monkey, in vivo, 30 mg/kg"}, "MERS-CoV (EMC)": {"tested_on": "MERS-CoV (EMC)", "experiment": "microbe, parasite or virus in culture", "assay_type": "cell-based"}, "in vitro [11]": {"experiment": "in vitro", "conditions": "human", "remark": "listed apart in the source"}, "[12]": {"tested_on": "HCoV-229E, HCoV-OC43, SARS-CoV-1 and SARS-CoV-2", "experiment": "organism not typed", "assay_type": "cell-based, human coronaviruses", "conditions": "read-out: individual EC90 values"}, "HCoV-229E [13]": {"tested_on": "HCoV-229E", "experiment": "Protection of BHK-21 cells from virus-induced cytopathogenicity (MTT)", "assay_type": "cell-based, human coronavirus", "conditions": "for EC50: Human coronavirus 229E", "description": "(§3) After a 3-day incubation at 37° C. cell viability was determined by the MTT method as described by Pauwels et al. (J. Virol. Methods 1988, 20, 309-321).\nIn an initial screening, BHK-21 cells acutely infected with a seasonal human alpha coronavirus, HCoV-229E, were exposed to serial dilutions of Compound 1A. […] No toxicity was detected from either drug.\nas §2"}, "HCoV": {"tested_on": "HCoV", "experiment": "Protection of MES-1 cells from virus-induced cytopathogenicity (MTT)", "assay_type": "cell-based", "conditions": "unidentified human coronavirus, 72 h, 50% protection of MES-1 cells, day 3 post-infection", "description": "as §3"}},
  "note": "Several values for one entry are separate records, joined by “and”; a condition that tells them apart may be missing. Identical values can stand only once. Like-named read-outs stand apart in the source and are kept apart here. Marks after values point to notes of the source that are not given here.",
  "data": [
    {"smiles": "CNc1nc(N)nc2c1ncn2[C@@H]1O[C@H](CO[P@@](=O)(N[C@@H](C)C(=O)OC(C)C)Oc2ccccc2)[C@@H](O)[C@@]1(C)F", "note": "[Compound 1A]", "values": [
      {"measurement": "Neutral Red Assay CC50", "setting": "Huh-7 cells", "result": ">50^ μg/mL"},
      {"measurement": "CC50", "setting": "in vitro [1]", "result": "> 50", "unit": "µg/mL"},
      {"measurement": "EC90", "setting": "HCoV-OC43 [2]", "result": 290, "unit": "nM"},
      {"measurement": "CC50 at 3 days", "setting": "[3]", "result": "> 100000", "unit": "nM"},
      {"measurement": "CC50", "setting": "[4]", "result": "> 100000", "unit": "nM"},
      {"measurement": "Selectivity Index", "setting": "SARS-CoV (Urbani); CC50/EC90, SARS-CoV (Urbani) in Huh7 cells", "result": ">250"},
      {"measurement": "EC90", "setting": "SARS-CoV (Urbani); Severe acute respiratory syndrome coronavirus, Huh-7, read-out: Virus Yield Reduction Assay EC90", "result": "340 nM and 0.2 µg/mL"},
      {"measurement": "EC90", "setting": "SARS-CoV-2 (WA1); Severe acute respiratory syndrome coronavirus 2, HAE, read-out: EC90 of the single replicates", "result": 570, "unit": "nM"},
      {"measurement": "EC90", "setting": "SARS-CoV-2 (WA1); Severe acute respiratory syndrome coronavirus 2, HAE, read-out: Virus Yield Reduction Assay EC90", "result": "470 nM and 0.37 µg/mL"},
      {"measurement": "EC90", "setting": "SARS-CoV-2 (WA1); Severe acute respiratory syndrome coronavirus 2, HAE, read-out: average EC90", "result": 540, "unit": "nM"},
      {"measurement": "EC90", "setting": "SARS-CoV-2 (WA1); Severe acute respiratory syndrome coronavirus 2, HAE, read-out: replicate EC90 determinations", "result": 0.33, "unit": "µg/mL"},
      {"measurement": "EC90", "setting": "SARS-CoV-2 (WA1); read-out: Virus Yield Reduction Assay EC90", "result": "510 nM and 640 nM"},
      {"measurement": "EC90", "setting": "SARS-CoV-2 (WA1); read-out: average EC90", "result": "500 nM and ~550 nM"},
      {"measurement": "Selectivity Index (CC50/EC90)", "setting": "HCoV-229E [5]; HCoV-229E in Huh-7", "result": ">75"},
      {"measurement": "EC50", "setting": "HCoV-229E [5]; Human coronavirus 229E, Huh-7, read-out: Neutral Red Assay EC50", "result": 1700, "unit": "nM"},
      {"measurement": "EC50", "setting": "HCoV-229E [5]; Human coronavirus 229E, Huh-7, read-out: Neutral Red EC50", "result": 1000, "unit": "nM"},
      {"measurement": "EC90", "setting": "HCoV-229E [5]; Human coronavirus 229E, Huh-7, read-out: VYR EC90", "result": 710, "unit": "nM"},
      {"measurement": "EC90", "setting": "HCoV-229E [5]; Human coronavirus 229E, Huh-7, read-out: Virus Yield Reduction Assay EC90", "result": 1000, "unit": "nM"},
      {"measurement": "EC50", "setting": "HCoV-229E [5]; Human coronavirus 229E, Huh-7, read-out: Visual EC50", "result": 1000, "unit": "nM"},
      {"measurement": "EC50", "setting": "HCoV-229E [5]; read-out: Neutral Red Assay EC50", "result": 1600, "unit": "nM"},
      {"measurement": "CC50 at 3 days", "setting": "[6]; mock infected BHK-21 cells, mock infected BHK cells, MTT, 3 days, Table 2A", "result": "> 100000", "unit": "nM"},
      {"measurement": "CC50 at 3 days", "setting": "[6]; uninfected BHK-21 cells, BHK-21, Table 5", "result": "> 100000", "unit": "nM"},
      {"measurement": "CC50", "setting": "mock infected BHK cells", "result": "> 100000", "unit": "nM"},
      {"measurement": "CC50", "setting": "in vitro [7]", "result": "> 86000", "unit": "nM"},
      {"measurement": "EC50", "setting": "HCoV-OC43 [8]; Betacoronavirus 1, OC43, RD, read-out: Neutral Red Assay EC50", "result": 2800, "unit": "nM"},
      {"measurement": "EC90", "setting": "HCoV-OC43 [8]; Betacoronavirus 1, OC43, RD, read-out: Virus Yield Reduction Assay EC90", "result": 2200, "unit": "nM"},
      {"measurement": "Selectivity Index (CC50/EC90)", "setting": "HCoV-OC43 [8]; HCoV-OC43 in RD", "result": ">39"},
      {"measurement": "EC50", "setting": "HCoV-229E [9]", "result": "> 100000", "unit": "nM"},
      {"measurement": "AUC(0-t)", "setting": "[10]", "result": 0.44, "unit": "µM·h"},
      {"measurement": "Cmax", "setting": "[10]", "result": 640, "unit": "nM"},
      {"measurement": "Tmax", "setting": "[10]", "result": "30 to 60", "unit": "min"},
      {"measurement": "half-life", "setting": "[10]", "result": 44.4, "unit": "min"},
      {"measurement": "EC90", "setting": "MERS-CoV (EMC); Middle East respiratory syndrome-related coronavirus, Huh-7, read-out: average EC90, MERS-CoV in Huh-7", "result": 36000, "unit": "nM"},
      {"measurement": "EC90", "setting": "MERS-CoV (EMC); read-out: average EC90, MERS-CoV in Huh-7", "result": 37000, "unit": "nM"},
      {"measurement": "CC50", "setting": "in vitro [11]; Neutral Red Assay CC50", "result": "> 86000", "unit": "nM"},
      {"measurement": "CC50", "setting": "in vitro [11]; Neutral Red CC50", "result": "> 50000", "unit": "nM"},
      {"measurement": "CC50", "setting": "in vitro [11]; Visual CC50", "result": "> 50000", "unit": "nM"},
      {"measurement": "EC90", "setting": "[12]", "result": "340 to 1200", "unit": "nM"},
      {"measurement": "Selectivity Index", "setting": "HCoV-229E [13]; CC50/EC50, HCoV-229E in BHK-21", "result": ">58^c"},
      {"measurement": "EC50", "setting": "HCoV-229E [13]; BHK, 72 h, 50% protection of BHK cells, MTT, day 3 post-infection, Table 2A, read-out: EC50", "result": 1600, "unit": "nM"},
      {"measurement": "EC50", "setting": "HCoV-229E [13]; BHK, 72 h, 50% protection of BHK cells, MTT, day 3 post-infection, Table 2B, read-out: EC50", "result": 2000, "unit": "nM"},
      {"measurement": "EC50", "setting": "HCoV-229E [13]; BHK-21, HCoV-229E in BHK-21, dye staining, average of 2 experiments, Table 5, read-out: EC50", "result": 1800, "unit": "nM"},
      {"measurement": "EC50", "setting": "HCoV-229E [13]; BHK-21, HCoV-229E in BHK-21, the 2 experiments behind the average, read-out: EC50 of the single experiments", "result": 1600, "unit": "nM"},
      {"measurement": "EC50", "setting": "HCoV; Table 3A", "result": 1600, "unit": "nM"},
      {"measurement": "EC50", "setting": "HCoV; Table 3B", "result": 2000, "unit": "nM"}
    ]}
  ]
}
